{"source": "patent US9629828B2", "about": "“Methods of treating traveler's diarrhea and hepatic encephalopathy” (priority 2008, dated 2017)", "key": {"rats": {"test_system": "rats", "conditions": "rat, in vivo", "source_text": "(§1) These effects include cleft palate, agnatha, jaw shortening, hemorrhage, eye partially open, small eyes, brachygnathia, incomplete ossification, and increased thoracolumbar vertebrae."}, "rabbits [1]": {"test_system": "rabbits", "conditions": "rabbit, in vivo", "source_text": "as §1"}, "rabbits [2]": {"test_system": "rabbits", "conditions": "rabbit, in vivo", "remark": "listed apart in the source"}, "[3]": {"test_system": "subjects with a history of recurrent, overt, episodic HE", "assay": "Second study: changes in Conn scores and asterixis grades", "format": "in vivo, human", "source_text": "Normalizing for subject exposure, this represents a hospitalization rate of 0.60 event/PEY. A total of 59 were hospitalized due HE episodes (e.g., HE-caused). Normalizing for subject exposure, this represents an HE-caused hospitalization rate of 0.29 event/PEY. […] All subjects were capable of worsening over time, and 24/266 subjects (9.0%) did so by 1 or 2 grades.\nThe last visit for the second study is the last visit recorded for the interim analysis.\nA total of 65.5% of subjects (220 of 337) had no change in Conn score and 21.1% (71 of 337) had improvements in Conn score from baseline to last visit. […] No change from baseline in asterixis grade was reported for 75.2% of subjects (252 of 337), and 17.3% had improvements."}, "cytochrome P450 2D6": {"target": "T1, cytochrome P450 2D6 (Homo sapiens, UniProt P10635)", "T1 construct": "from tissue; host or cells: human liver fractions", "T1 sequence (P10635 whole entry)": "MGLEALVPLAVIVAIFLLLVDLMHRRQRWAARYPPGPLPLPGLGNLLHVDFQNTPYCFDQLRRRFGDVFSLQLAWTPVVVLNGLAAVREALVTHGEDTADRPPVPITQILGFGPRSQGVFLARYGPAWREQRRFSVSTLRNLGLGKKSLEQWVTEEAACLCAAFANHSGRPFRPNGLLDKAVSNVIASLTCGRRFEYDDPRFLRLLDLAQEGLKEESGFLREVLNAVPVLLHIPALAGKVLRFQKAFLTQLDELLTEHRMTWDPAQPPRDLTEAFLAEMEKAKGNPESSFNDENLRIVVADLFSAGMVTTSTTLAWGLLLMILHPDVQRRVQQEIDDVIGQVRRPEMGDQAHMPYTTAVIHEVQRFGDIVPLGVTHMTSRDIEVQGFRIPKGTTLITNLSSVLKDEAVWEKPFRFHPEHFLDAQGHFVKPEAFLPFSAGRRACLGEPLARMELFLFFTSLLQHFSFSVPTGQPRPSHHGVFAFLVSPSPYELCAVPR", "assay": "In vitro cytochrome P450 inhibition", "format": "in vitro ADME", "conditions": "2 to 200 ng/mL"}, "[4]": {"test_system": "adult subjects with travelers' diarrhea", "assay": "Travelers' diarrhea Study 1: clinical response (TLUS, clinical cure)", "format": "in vivo, human", "protocol": "One study was conducted at clinical sites in Mexico, Guatemala, and Kenya (Study 1). The other study was conducted in Mexico, Guatemala, Peru, and India (Study 2). Stool specimens were collected before treatment and 1 to 3 days following the end of treatment to identify enteric pathogens. The predominant pathogen in both studies was Escherichia coli.\nThe clinical efficacy of rifaximin was assessed by the time to return to normal, formed stools and resolution of symptoms. The primary efficacy endpoint was time to last unformed stool (TLUS) which was defined as the time to the last unformed stool passed, after which clinical cure was declared. […] More patients treated with rifaximin were classified as clinical cures than were those in the placebo group."}, "[5]": {"conditions": "all rifaximin experience, 337 subjects"}}, "note": "Marks after values point to notes of the source that are not given here.", "data": [{"molecule": "CO[C@H]1/C=C/O[C@@]2(C)Oc3c(C)c(O)c4c(O)c(c5c(nc6cc(C)ccn65)c4c3C2=O)NC(=O)/C(C)=C\\C=C\\[C@H](C)[C@H](O)[C@@H](C)[C@@H](O)[C@@H](C)[C@H](OC(C)=O)[C@@H]1C", "note": "[rifaximin, (2S,16Z,18E,20S,21S,22R,23R,24R,25 S,26S,27S,28E)-5,6,21,23,25-pentahydroxy-27-methoxy-2,4,11,16,20,22,24,26-octamethyl-2,7-(epoxypentadeca-[1,11,13]trienimino)benzofuro[4,5-e]pyrido[1,2-á]-benzimidazole-1,15(2H)-dione,25-acetate]", "values": [{"measurement": "fertility / harm to the fetus", "setting": "rats", "result": "no evidence of impaired fertility or harm to the fetus"}, {"measurement": "fertility / harm to the fetus", "setting": "rabbits [1]", "result": "no evidence of impaired fertility or harm to the fetus"}, {"measurement": "toxic effects", "setting": "rabbits [2]", "result": "negligible toxic effects"}, {"measurement": "subjects improved among those entering with asterixis scores of 1, 2, or 3", "setting": "[3]; 67 subjects", "result": 64.2, "unit": "%"}, {"measurement": "subjects with 1-grade asterixis improvement", "setting": "[3]; 67 subjects", "result": 50.7, "unit": "%"}, {"measurement": "subjects with 2-grade asterixis improvement", "setting": "[3]; 67 subjects", "result": 6.0, "unit": "%"}, {"measurement": "subjects with 3-grade asterixis improvement", "setting": "[3]; 67 subjects", "result": 7.5, "unit": "%"}, {"measurement": "subjects with worsening asterixis, continuing rifaximin", "setting": "[3]; 70 subjects", "result": 8.6, "unit": "%"}, {"measurement": "subjects improved among those entering with Conn scores of 1, 2, or 3", "setting": "[3]; 84 subjects", "result": 64.3, "unit": "%"}, {"measurement": "subjects with 1-grade Conn improvement", "setting": "[3]; 84 subjects", "result": 56.0, "unit": "%"}, {"measurement": "subjects with 2-grade Conn improvement", "setting": "[3]; 84 subjects", "result": 8.3, "unit": "%"}, {"measurement": "subjects improved in asterixis grade among those entering with grade ≧1", "setting": "[3]; 99 subjects", "result": 58.6, "unit": "%"}, {"measurement": "subjects improved to Conn score 0 among those entering with Conn ≧1", "setting": "[3]; 118 subjects", "result": 62.2, "unit": "%"}, {"measurement": "subjects with worsening asterixis, new rifaximin", "setting": "[3]; 196 subjects", "result": 6.1, "unit": "%"}, {"measurement": "subjects with Conn worsening by 1 or 2 grades", "setting": "[3]; 266 subjects", "result": 9.0, "unit": "%"}, {"measurement": "subjects with improvements in Conn scores at last visit", "setting": "[3]; 266 subjects", "result": 20.3, "unit": "%"}, {"measurement": "subjects with improvements in asterixis scores", "setting": "[3]; 266 subjects", "result": 16.2, "unit": "%"}, {"measurement": "subjects with mental status maintained or improved", "setting": "[3]; 266 subjects", "result": 91, "unit": "%"}, {"measurement": "subjects with neuromotor symptoms maintained", "setting": "[3]; 266 subjects", "result": 83.3, "unit": "%"}, {"measurement": "subjects with no change in Conn score at last visit", "setting": "[3]; 266 subjects", "result": 70.7, "unit": "%"}, {"measurement": "subjects with no change in asterixis at last visit", "setting": "[3]; 266 subjects", "result": 77.1, "unit": "%"}, {"measurement": "subjects with improvements in asterixis grade", "setting": "[3]; all rifaximin experience", "result": 17.3, "unit": "%"}, {"measurement": "subjects with maintenance or improvements in asterixis grades", "setting": "[3]; all rifaximin experience", "result": "> 90", "unit": "%"}, {"measurement": "subjects with improvements in Conn score", "setting": "[3]; [5]", "result": 21.1, "unit": "%"}, {"measurement": "subjects with no change in Conn score", "setting": "[3]; [5]", "result": 65.5, "unit": "%"}, {"measurement": "subjects with no change in asterixis grade", "setting": "[3]; [5]", "result": 75.2, "unit": "%"}, {"measurement": "subjects with maintenance or improvement in Conn scores", "setting": "[3]; all rifaximin experience, up to 840 days", "result": "> 85", "unit": "%"}, {"measurement": "inhibition of 2D6", "setting": "cytochrome P450 2D6", "result": "did not inhibit"}, {"measurement": "Median TLUS", "setting": "[4]; 200 mg TID 3 days, ITT n = 125", "result": 32.5, "unit": "h"}, {"measurement": "Difference in rates of clinical cure vs placebo", "setting": "[4]; ITT", "result": "18.7^b"}, {"measurement": "Clinical cure", "setting": "[4]; ITT n = 125", "result": "99 (79.2) n (%)"}]}]}
